Key:
OAT3 = test system: T1, OAT3; assay: Substrate specificity / uptake in HEK293-OAT3 cells; type: in vitro ADME; settings: for Substrate for OAT3: HEK293-OAT3 vs mock, ± 20 μM probenecid
T1 construct: host or cells: HEK293
Protocol: HEK293-mock cells and HEK293 cells overexpressing OAT1 and OAT3 transporters (HEK293-OAT1 and -OAT3, respectively) were seeded in poly-D-lysine-coated 24-well plates at a density of 4 × 10^5 cells/well and cultured for 24 h in DMEM supplemented with 10% FBS and 5 mM non-essential amino acids at 37 °C in 8% CO2 condition.
For each experiment, the growth medium was discarded after 24 h, and the attached cells were washed with pre-warmed HBSS and incubated with pre-warmed HBSS for 20 min at 37 °C. To confirm the functionality of OAT1 and OAT3, we measured the uptake of 0.1 µM [^3H]PAH and 0.1 µM [^3H]ES, representative substrates for OAT1 and OAT3, respectively, into in the HEK293-mock cells and HEK293-OAT1 and -OAT3 cells, respectively, for 5 min in the presence and absence of 20 µM probenecid, a typical inhibitor for both OAT1 and OAT3 [8, 9]. The cells were then washed three times with 500 μL of ice-cold HBSS immediately after placing the plates on ice. Subsequently, cells were lysed with 10% sodium dodecyl sulfate and mixed with Optiphase cocktail solution overnight. The radioactivity of the cell lysate was measured using a liquid scintillation counter (Microbeta 2; Perkin Elmer Inc., Boston, MA, USA).
For the concentration dependency in the uptake of DWP16001, the uptake of DWP16001 in a concentration range of 0.5–50 μM dissolved in HBSS was measured for 5 min at 37 °C in the mock cells and HEK293-OAT1 and -OAT3 cells, respectively. After 5 min, the cells were washed three times with 500 μL of ice-cold HBSS immediately after placing the plates on ice.
In the concentration-dependent uptake studies, the transporter-mediated uptake of DWP16001 was calculated by the subtraction of the transport rates of DWP16001 into the mock cells from those of the HEK293-OAT1 and -OAT3 cells. Kinetic parameters for the OAT1- and OAT3-mediated transport of DWP16001 were determined using the Michaelis-Menten equation [V = Vmax⋅S/(Km + S)] [10].

SGLT2 [1] = biological target: T2, SGLT2 (Homo sapiens, UniProt P31639); assay: Inhibition of [14C]AMG uptake in CHO-SGLT2 cells; type: cell-based; settings: for IC50: 10 μM [14C]AMG uptake, 2 h, CHO-SGLT2 minus mock, mean ± SD, triplicate
T2 construct: host or cells: CHO
T2 sequence (P31639 1-672): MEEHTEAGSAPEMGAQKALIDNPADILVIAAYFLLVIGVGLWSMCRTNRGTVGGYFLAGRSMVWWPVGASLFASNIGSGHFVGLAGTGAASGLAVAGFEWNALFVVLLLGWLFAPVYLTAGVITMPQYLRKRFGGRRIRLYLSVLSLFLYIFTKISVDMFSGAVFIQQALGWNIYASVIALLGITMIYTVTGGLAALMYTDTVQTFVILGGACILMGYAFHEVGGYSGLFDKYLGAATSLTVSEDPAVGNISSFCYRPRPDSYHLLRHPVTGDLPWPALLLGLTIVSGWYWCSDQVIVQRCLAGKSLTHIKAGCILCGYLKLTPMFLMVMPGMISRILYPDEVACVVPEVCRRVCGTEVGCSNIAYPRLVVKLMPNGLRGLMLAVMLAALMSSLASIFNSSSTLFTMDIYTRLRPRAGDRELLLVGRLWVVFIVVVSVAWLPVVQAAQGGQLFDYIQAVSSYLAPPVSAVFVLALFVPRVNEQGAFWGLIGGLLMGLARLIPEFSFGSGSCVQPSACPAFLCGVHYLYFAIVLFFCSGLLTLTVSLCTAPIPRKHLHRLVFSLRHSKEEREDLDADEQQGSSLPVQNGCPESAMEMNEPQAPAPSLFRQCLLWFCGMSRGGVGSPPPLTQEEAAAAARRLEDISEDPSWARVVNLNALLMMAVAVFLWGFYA
Protocol: CHO cells overexpressing SGLT1 and SGLT2 cells (CHO-SGLT1 and -SGLT2) and CHO-mock cells were characterized as previously described. Cells were maintained in RPMI1640 medium supplemented with 10% fetal bovine serum and 200 µg/mL G418 at 37 °C in 5% CO2 conditions. CHO-SGLT1 and -SGLT2 cells were seeded at a density of 1 × 10^5 cells/well in 96-well plates. After 24 h, the growth medium was discarded from the cells, and the cells were washed with pre-warmed Na^+-free buffer (10 mM HEPES, 5 mM Tris, 140 mM choline chloride, 2 mM KCl, 1 mM CaCl2, 1 mM MgCl2, pH7.4) and incubated for 1 h in Na^+-free buffer. After replacing Na^+-free buffer with Na^+ gradient buffer (10 mM HEPES, 5 mM Tris, 140 mM NaCl, 2 mM KCl, 1 mM CaCl2, 1 mM MgCl2, pH7.4) containing 10 µM [^14C]AMG, the uptake of [^14C]AMG into the CHO-mock cells and CHO-SGLT1 and -SLGT2 cells was measured for 0.5, 1, 1.5, 2, and 3 h. After a predetermined incubation time, cells were washed three times with 200 µL of ice-cold Na^+-free buffer immediately after placing the plates on ice. Then, the cells were lysed with 10% SDS, and the cell lysates were mixed with Optiphase cocktail solution. Thereafter, the radioactivity of the cell lysates was measured using a liquid scintillation counter.
After 2 h, cells were washed three times with 200 µL of ice-cold Na^+-free buffer and the cells were lysed with 10% SDS (40 µL), followed by adding Optiphase cocktail solution (200 µL). The radioactivity of the cell lysates was measured using a liquid scintillation counter. The SGLT1 or SGLT2-mediated uptake of [^14C]AMG was calculated by the subtraction of the uptake rates of [^14C]AMG into the mock cells from those of the CHO-SGLT1 and -SLGT2 cells. In the inhibition studies, the percentages of the transport rate of AMG with or without SGLT2 inhibitors were calculated and the data were fitted to an inhibitory effect model. The IC50 (the concentration of the inhibitor to show half-maximal inhibition) values were calculated using Sigma Plot ver.10.0 (Systat Software, Inc.; San Jose, CA, USA).

SGLT2 [2] = biological target: T2, SGLT2; assay: Time dependency of SGLT2 inhibition (preincubation) in CHO-SGLT2 cells; type: cell-based; settings: for IC50: 10 μM [14C]AMG, 2 h, CHO-SGLT2; for Time dependency of SGLT2 inhibition: pretreatment 0, 1, 2 h
Protocol: After 2 h of incubation, the radioactivity of the cell lysate was measured following the same sample preparation method described above.

SGLT2 [3] = biological target: T2, SGLT2; assay: Mode of inhibition on SGLT2 (Dixon plots) in CHO-SGLT2 cells; type: cell-based; settings: 1, 2.5, 5, 50 μM [14C]AMG
Protocol: The radioactivity of the cell lysate was measured following the same sample preparation method described above.

[4] = without preincubation, read-out: IC50 (0 h)
[5] = HEK293-OAT3 minus mock, 0.5–50 μM, 5 min

SMILES	Substrate for OAT3 (OAT3; 2 μM, 5 min)	Selectivity (IC50 Ratio of SGLT1/SGLT2) (SGLT2 [1])	IC50 (SGLT2 [1]) [nM]	IC50 (SGLT2 [2]; IC50 (1 h), preincubation 1 h) [nM]	IC50 (SGLT2 [2]; IC50 (2 h), preincubation 2 h) [nM]	Time dependency of SGLT2 inhibition (SGLT2 [2])	IC50 (SGLT2 [2]; [4]) [nM]	Mode of inhibition on SGLT2 (SGLT2 [3])	Increase of uptake in HEK293-OAT3 cells compared with mock cells (OAT3; 2 μM, 5 min)	OAT3-mediated uptake: CLint (OAT3; [5]) [µL/min]	OAT3-mediated uptake: Vmax (OAT3; [5]) [pmol/min]	Km at 5 min (OAT3; human, HEK293-OAT3 minus mock, 0.5–50 μM, read-out: OAT3-mediated uptake: Km) [µM]
OC[C@H]1O[C@@H](c2ccc(F)c(Cc3cc4ccccc4s3)c2)[C@H](O)[C@@H](O)[C@@H]1O [Ipragliflozin, ipragliflozin]	not substrates	261	8.9 ± 1.7	11	9.9	time-independent	10.6	reversible and competitive				
OC[C@H]1O[C@@H](c2cc(Cc3ccc(C4CC4)cc3)c(Cl)c3c2CCO3)[C@H](O)[C@@H](O)[C@@H]1O [DWP16001]	a substrate	667	0.8 ± 0.3	0.7	0.8	time-independent	0.7	reversible and competitive	two-fold	8.6	267.9	31.1

Source: article PMC7151106 (Pharmaceutics, 2020)
